These results are taken from PMC9250534, “Synthesis and direct assay of large macrocycle diversities by combinatorial late-stage modification at picomole scale” (Nature Communications, 2022).

Numbered stars: 1 amine (or outer) side, 2 acyl side, 3 side chain; on linkers, the order of the positions; unused ones are H or OH. Bridge positions count the residues as written; N and C are the ends. Square brackets hold non-standard residues; d marks the D form. Peptide text beside a SMILES is read from it. * marks the point of attachment. Pro(4S-NHCO(5-Cl-2-thienyl)) = O=C(N[C@@H]1CN[C@H](C(=O)O)C1)c1ccc(Cl)s1; Pyrazinoyl(5-oxo-4H) = O=C(c1c[nH]c(=O)cn1)*; 1,2,3Thiadiazole5CO(4-Me) = Cc1nnsc1C(=O)*; Isoorotoyl = O=C(c1c[nH]c(=O)[nH]c1=O)*; Nicotinoyl(6-OMe) = COc1ccc(C(=O)*)cn1; 2Thenoyl(5-Cl) = O=C(c1ccc(Cl)s1)*; Phenoxyacetyl = O=C(COc1ccccc1)*; Cysteamide = C(CS[*:3])N[*:1]; X3 = O=C(Cc1c[nH]c2ccccc12)*; Isovaleryl = CC(C)CC(=O)*; 2Furoyl = O=C(c1ccco1)*; Api = NC1(C(=O)O)CCNCC1; Dap = NC[C@H](N)C(=O)O; Bz = O=C(c1ccccc1)*; Mpa = O=C(O)CCS

The target of the first experiment is T1, thrombin (Homo sapiens, UniProt P00734).
T1 construct: consists of two polypeptide chains of 36 (light chain) and 259 amino acid
Briefly: Thrombin inhibition screen of crude macrocycle reactions (residual thrombin activity, fluorogenic substrate Z-Gly-Gly-Arg-AMC). To be noted: 10 µM macrocycle concentration; crude reactions, Library 1a-l; scaffold AA1-AA2-AA3 combined with 1-16 or '-'. The class given is biochemical. The method, boiled down:
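Residual activity was measured as the AMC release rate after adding 50 μM Z-Gly-Gly-Arg-AMC. This followed a 10-min room-temperature preincubation of 2 nM thrombin with 10 μM single macrocycles in pH 7.4 Tris buffer (0.6% DMSO). Percent inhibition was taken against the mean slope of DMSO controls.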
`CC(C)CC(=O)NCCCC[C@@H]1NC(=O)[C@H](CC(C)C)NC(=O)CCSSCCNC(=O)[C@@H]2CCCN2C1=O` [L-D1-B1/8] ([Mpa]LK(Isovaleryl)P-Cysteamide; disulfide 1-C): the “percent residual thrombin activity” value worked out at 109.409%.
The same measure, in the same setting: next, `CC(C)C[C@@H]1NC(=O)CCSSCCNC(=O)[C@@H]2CCCN2C(=O)[C@H](CCCCNC(=O)COc2ccccc2)NC1=O` [L-D1-B1/13] ([Mpa]LK(Phenoxyacetyl)P-Cysteamide; disulfide 1-C): 112.403%; `Cc1nnsc1C(=O)NCCCC[C@@H]1NC(=O)[C@H](CC(C)C)NC(=O)CCSSCCNC(=O)[C@@H]2CCCN2C1=O` [L-D1-B1/15] ([Mpa]LK(1,2,3Thiadiazole5CO(4-Me))P-Cysteamide; disulfide 1-C): 110.815%.
Same read-out and setting: next, `NC(=O)CC[C@@H]1NC(=O)CCSSCCNC(=O)[C@H](CCCCNC(=O)c2cnccn2)NC(=O)C2(CC2)CNC1=O` [Q-B6-D1/2]: 107.685%; `NC(=O)CC[C@@H]1NC(=O)CCSSCCNC(=O)[C@H](CCCCNC(=O)c2c[nH]c(=O)[nH]c2=O)NC(=O)C2(CC2)CNC1=O` [Q-B6-D1/11]: 108.88%; `NC(=O)CC[C@@H]1NC(=O)CCSSCCNC(=O)[C@H](CCCCNC(=O)Cc2c[nH]c3ccccc23)NC(=O)C2(CC2)CNC1=O` [Q-B6-D1/12]: 103.639%.
Still for that read-out and setting: next, `NC(=O)CC[C@@H]1NC(=O)CCSSCCNC(=O)[C@H](CCCCNC(=O)c2ccc(Cl)s2)NC(=O)C2(CC2)CNC1=O` [Q-B6-D1/14]: 99.4946%.
Regarding `NC(=O)CC[C@@H]1NC(=O)CCSSCCNC(=O)[C@H]2CCCN(C2)C(=O)[C@H](CCCCNC(=O)c2c[nH]c(=O)[nH]c2=O)NC1=O` [Q-D1-B4/11], the “percent residual thrombin activity” value stood at 113.771%.
Same read-out and setting: next, `NC(=O)CC[C@@H]1NC(=O)CCSSCCNC(=O)[C@H]2CCCN(C2)C(=O)[C@H](CCCCNC(=O)COc2ccccc2)NC1=O` [Q-D1-B4/13]: 120.491%; `NC(=O)CC[C@@H]1NC(=O)CCSSCCNC(=O)[C@H]2CCCN(C2)C(=O)[C@H](CCCCNC(=O)c2ccc(Cl)s2)NC1=O` [Q-D1-B4/14]: 109.426%.
The same measure, in the same setting: next, `O=C1CCSSCCNC(=O)[C@H](CCCNC(=O)c2ccccc2)NC(=O)c2ccc(cc2)CNC(=O)[C@H](CO)N1` [S-B3-D2/1]: 105.629%; `CC(C)CC(=O)NCCC[C@@H]1NC(=O)c2ccc(cc2)CNC(=O)[C@H](CO)NC(=O)CCSSCCNC1=O` [S-B3-D2/8]: 113.923%.
As for `O=C(Cc1c[nH]c2ccccc12)NCCC[C@@H]1NC(=O)c2ccc(cc2)CNC(=O)[C@H](CO)NC(=O)CCSSCCNC1=O` [S-B3-D2/12], the “percent residual thrombin activity” value is given as 111.94%.
On the same count and under the same terms, next, `O=C(COc1ccccc1)NCCC[C@@H]1NC(=O)c2ccc(cc2)CNC(=O)[C@H](CO)NC(=O)CCSSCCNC1=O` [S-B3-D2/13]: 119.049%.
As for `Cc1nnsc1C(=O)NCCC[C@@H]1NC(=O)c2ccc(cc2)CNC(=O)[C@H](CO)NC(=O)CCSSCCNC1=O` [S-B3-D2/15], the “percent residual thrombin activity” value stood at 116.562%.
For the molecule `O=C1CCSSCCNC(=O)[C@H](CCCNC(=O)c2ccco2)NC(=O)c2ccc(cc2)CNC(=O)[C@H](CO)N1` [S-B3-D2/16], the “percent residual thrombin activity” value is on record as 114.086%.
Take `NCCC[C@@H]1NC(=O)c2ccc(cc2)CNC(=O)[C@H](CO)NC(=O)CCSSCCNC1=O` [S-B3-D2/-]: the “percent residual thrombin activity” value is 119.352%.
Same read-out and setting: the value for `O=C1CCSSCCNC(=O)[C@H](CCCCNC(=O)c2c[nH]c(=O)[nH]c2=O)NC(=O)c2cccc(c2)CNC(=O)[C@H](CO)N1` [S-B5-D1/11] was 117.639%; that for `O=C1CCSSCCNC(=O)[C@H](CCCCNC(=O)c2ccco2)NC(=O)c2cccc(c2)CNC(=O)[C@H](CO)N1` [S-B5-D1/16] was 112.778%.
On the same count and under the same terms, next, `CC(C)[C@@H]1NC(=O)CCSSCCNC(=O)[C@@H]2CCCN2C(=O)[C@H](CCCCNC(=O)c2c[nH]c(=O)cn2)NC1=O` [V-D1-B1/9] ([Mpa]VK(Pyrazinoyl(5-oxo-4H))P-Cysteamide; disulfide 1-C): 107.119%; `COc1ccc(C(=O)NCCCC[C@@H]2NC(=O)[C@H](C(C)C)NC(=O)CCSSCCNC(=O)[C@@H]3CCCN3C2=O)cn1` [V-D1-B1/10] ([Mpa]VK(Nicotinoyl(6-OMe))P-Cysteamide; disulfide 1-C): 107.385%.
For `CC(C)[C@@H]1NC(=O)CCSSCCNC(=O)[C@@H]2CCCN2C(=O)[C@H](CCCCNC(=O)Cc2c[nH]c3ccccc23)NC1=O` [V-D1-B1/12] ([Mpa]VK(X3)P-Cysteamide; disulfide 1-C), the “percent residual thrombin activity” value came out at 105.267%.
Turning to `CC(C)[C@@H]1NC(=O)CCSSCCNC(=O)[C@@H]2CCCN2C(=O)[C@H](CCCCNC(=O)COc2ccccc2)NC1=O` [V-D1-B1/13] ([Mpa]VK(Phenoxyacetyl)P-Cysteamide; disulfide 1-C), the “percent residual thrombin activity” value is reported as 111.167%.
Take `CC(C)[C@@H]1NC(=O)CCSSCCNC(=O)[C@@H]2CCCN2C(=O)[C@H](CCCCNC(=O)c2ccc(Cl)s2)NC1=O` [V-D1-B1/14] ([Mpa]VK(2Thenoyl(5-Cl))P-Cysteamide; disulfide 1-C): the “percent residual thrombin activity” value worked out at 105.594%.
In the case of `Cc1nnsc1C(=O)NCCCC[C@@H]1NC(=O)[C@H](C(C)C)NC(=O)CCSSCCNC(=O)[C@@H]2CCCN2C1=O` [V-D1-B1/15] ([Mpa]VK(1,2,3Thiadiazole5CO(4-Me))P-Cysteamide; disulfide 1-C), the “percent residual thrombin activity” value was 114.617%.
On to `CC(C)[C@@H]1NC(=O)CCSSCCNC(=O)[C@@H]2CCCN2C(=O)[C@H](CCCCNC(=O)c2ccco2)NC1=O` [V-D1-B1/16] ([Mpa]VK(2Furoyl)P-Cysteamide; disulfide 1-C), for which the “percent residual thrombin activity” value is 110.34%.
In the case of `O=C1CCSSCCNC(=O)[C@H](CCCCNC(=O)c2ccccc2)NC(=O)C2(CC2)CNC(=O)[C@H](Cc2c[nH]c3ccccc23)N1` [W-B6-D1/1], the “percent residual thrombin activity” value was determined as 92.2757%.
On the same count and under the same terms, next, `O=C(COc1ccccc1)NCCCC[C@@H]1NC(=O)C2(CC2)CNC(=O)[C@H](Cc2c[nH]c3ccccc23)NC(=O)CCSSCCNC1=O` [W-B6-D1/13]: 88.7647%; `O=C1CCSSCCNC(=O)[C@H](CCCCNC(=O)c2ccc(Cl)s2)NC(=O)C2(CC2)CNC(=O)[C@H](Cc2c[nH]c3ccccc23)N1` [W-B6-D1/14]: 81.7178%.
Same read-out and setting: next, `NCCCC[C@@H]1NC(=O)C2(CC2)CNC(=O)[C@H](Cc2c[nH]c3ccccc23)NC(=O)CCSSCCNC1=O` [W-B6-D1/-]: 87.3276%; `O=C1CCSSCCNC(=O)[C@@H]2CCCN2C(=O)[C@H](CCCCNC(=O)c2ccccc2)NC(=O)[C@H](Cc2c[nH]c3ccccc23)N1` [W-D1-B1/1] ([Mpa]WK(Bz)P-Cysteamide; disulfide 1-C): 101.199%.
Regarding `O=C1CCSSCCNC(=O)[C@@H]2CCCN2C(=O)[C@H](CCCCNC(=O)c2c[nH]c(=O)[nH]c2=O)NC(=O)[C@H](Cc2c[nH]c3ccccc23)N1` [W-D1-B1/11] ([Mpa]WK(Isoorotoyl)P-Cysteamide; disulfide 1-C), the “percent residual thrombin activity” value came out at 99.1805%.
As to `O=C(COc1ccccc1)NCCCC[C@@H]1NC(=O)[C@H](Cc2c[nH]c3ccccc23)NC(=O)CCSSCCNC(=O)[C@@H]2CCCN2C1=O` [W-D1-B1/13] ([Mpa]WK(Phenoxyacetyl)P-Cysteamide; disulfide 1-C), the “percent residual thrombin activity” value stood at 96.359%.

The same experiment, now with this note: 10 µM macrocycle concentration; macrocycles containing acid 14; crude reaction; original screen.
Consider `CC(C)[C@H]1NC(=O)[C@H](CCCCNC(=O)c2ccc(Cl)s2)NC(=O)[C@@H]2CCCN2C(=O)CCSSCCNC1=O` [X B1 D1 v] ([Mpa]PK(2Thenoyl(5-Cl))[dV]-Cysteamide; disulfide 1-C), for which the “% thrombin activity, Original screen” value was found to be 108.1%.
On the same count and under the same terms, next, `O=C(NCCCC[C@@H]1NC(=O)[C@@H]2CCCN2C(=O)CCSSCCNC(=O)[C@@H](Cc2ccc(O)cc2)NC1=O)c1ccc(Cl)s1` [X B1 D1 y] ([Mpa]PK(2Thenoyl(5-Cl))[dY]-Cysteamide; disulfide 1-C): 103.7%; `O=C(NC[C@@H]1NC(=O)[C@@H]2CCCN2C(=O)CCSSCCNC(=O)[C@@H](Cc2ccccc2)NC1=O)c1ccc(Cl)s1` [X B1 D3 f] ([Mpa]P[Dap](2Thenoyl(5-Cl))[dF]-Cysteamide; disulfide 1-C): 86.2%; `NC(=O)CC[C@@H]1NC(=O)[C@@H]2C[C@H](NC(=O)c3ccc(Cl)s3)CN2C(=O)[C@@H]2CCCN2C(=O)CCSSCCNC1=O` [X B1 D5 Q] ([Mpa]P[Pro(4S-NHCO(5-Cl-2-thienyl))]Q-Cysteamide; disulfide 1-C): 96.1%.
Still for that read-out and setting: next, `O=C1NCCSSCCC(=O)N2CCC[C@H]2C(=O)NC2(CCN(C(=O)c3ccc(Cl)s3)CC2)C(=O)N[C@H]1Cc1c[nH]cn1` [X B1 D6 H] ([Mpa]P[Api](2Thenoyl(5-Cl))H-Cysteamide; disulfide 1-C): 90.0%; `NC(=O)CC[C@@H]1NC(=O)C2(CCN(C(=O)c3ccc(Cl)s3)CC2)NC(=O)[C@@H]2CCCN2C(=O)CCSSCCNC1=O` [X B1 D6 Q] ([Mpa]P[Api](2Thenoyl(5-Cl))Q-Cysteamide; disulfide 1-C): 91.7%.

The same experiment, now with this note: 10 µM macrocycle concentration; macrocycles containing acid 14; crude reaction; replicate reaction and screen.
With `CC(C)[C@H]1NC(=O)[C@H](CCCCNC(=O)c2ccc(Cl)s2)NC(=O)[C@@H]2CCCN2C(=O)CCSSCCNC1=O` [X B1 D1 v] ([Mpa]PK(2Thenoyl(5-Cl))[dV]-Cysteamide; disulfide 1-C), the “% thrombin activity, Repeat screen” value turned out to be 109.9%.
The same measure, in the same setting: next, `O=C(NCCCC[C@@H]1NC(=O)[C@@H]2CCCN2C(=O)CCSSCCNC(=O)[C@@H](Cc2ccc(O)cc2)NC1=O)c1ccc(Cl)s1` [X B1 D1 y] ([Mpa]PK(2Thenoyl(5-Cl))[dY]-Cysteamide; disulfide 1-C): 108.0%.
Turning to `O=C(NC[C@@H]1NC(=O)[C@@H]2CCCN2C(=O)CCSSCCNC(=O)[C@@H](Cc2ccccc2)NC1=O)c1ccc(Cl)s1` [X B1 D3 f] ([Mpa]P[Dap](2Thenoyl(5-Cl))[dF]-Cysteamide; disulfide 1-C), the “% thrombin activity, Repeat screen” value was found to be 88.2%.
On the same count and under the same terms, next, `NC(=O)CC[C@@H]1NC(=O)[C@@H]2C[C@H](NC(=O)c3ccc(Cl)s3)CN2C(=O)[C@@H]2CCCN2C(=O)CCSSCCNC1=O` [X B1 D5 Q] ([Mpa]P[Pro(4S-NHCO(5-Cl-2-thienyl))]Q-Cysteamide; disulfide 1-C): 98.4%.
Same read-out and setting: the value for `O=C1NCCSSCCC(=O)N2CCC[C@H]2C(=O)NC2(CCN(C(=O)c3ccc(Cl)s3)CC2)C(=O)N[C@H]1Cc1c[nH]cn1` [X B1 D6 H] ([Mpa]P[Api](2Thenoyl(5-Cl))H-Cysteamide; disulfide 1-C) was 94.0%; that for `NC(=O)CC[C@@H]1NC(=O)C2(CCN(C(=O)c3ccc(Cl)s3)CC2)NC(=O)[C@@H]2CCCN2C(=O)CCSSCCNC1=O` [X B1 D6 Q] ([Mpa]P[Api](2Thenoyl(5-Cl))Q-Cysteamide; disulfide 1-C) was 93.5%.
